Assay [1] relates to P. aeruginosa (ATCC 27853). In words: MIC, broth microdilution. It counts as cell-based. Here is the method:
(§1) Bacterial strains. S. aureus Newman was kindly provided by Prof. Douglas Weibel; E. coli ATCC25922, S. aureus ATCC 33591 and P. aeruginosa ATCC 27853 were purchased from ATCC. E. coli DH5a was purchased from Thermo Fisher. These bacteria were grown in Mueller Hinton Broth (MHB) media (Criterion, Santa Maria, CA, USA). M. smegmatis mc^2155 strain was kindly provided by Prof. Adel M. Talaat's laboratory, and it was grown in Middlebrook 7H9 broth (HiMedia, West Chester, PA, USA).
(§2) Minimal inhibitory concentration (MIC) measurements. The MIC of the different treatments on various bacteria strains was determined using the Clinical Laboratory Standards Institute broth microdilution method^8. Briefly, broth media (100 μL) containing two-fold serial dilutions of each compound were placed into a 96-well tissue culture plate. Each bacterial strain was taken from an exponentially growing culture and diluted to 5×10^6 CFU/mL. Ten microliters of such microbial suspension was inoculated in each well of the plate, resulting in a final bacteria concentration of approximately 5×10^5 CFU/mL. The bacteria were cultured at 37° C. for one day and their growth was observed by reading the optical density (OD) at 600 nm. The MIC was determined as the treatment concentration at which no microbial growth was observed. Broth containing microbial cells alone was used as a positive control and broth without bacteria inoculation was used as a negative control. Each test was carried out in 3 replicates.
(In broth dilution the organism is exposed to a series of concentrations in liquid medium.)

The test system of assay [2] is P. aeruginosa (ATCC 27853). Put plainly: Checkerboard assay, FIC index. It counts as cell-based. To be noted: for FIC index: antibiotic with the PBAE-G polymer. Here is the method:
(§3) Fractional inhibitory concentration (FIC) measurement. The synergy between the cationic polymer and antibiotic was assessed by checkerboard assays. The two antibacterial components were mixed in a 96-well plate with serial two-dimensional dilutions. Bacteria were inoculated in each well of the plate and their growth, reflected by the OD600 value, was monitored. The synergy effect was evaluated by calculating the FIC index according to the formula below:
(§4) [formula] MICA^Comb and MICB^Comb indicate the MICS of the two components in combination. The interactions between the two components are defined according to standard criteria of considering FIC≤0.5 as synergistic; 0.5<FIC≤1 as additive; 1<FIC≤4 as indifference; and FIC>4 as antagonism.

In another assay the test system is MRSA. In words: Checkerboard assay, FIC index. It counts as cell-based, S. aureus. To be noted: antibiotic with the PBAE-G polymer. Here is the method: as §3, §4
In a further assay the test system is MRSA (ATCC 33591). In words: MIC, broth microdilution. Type of assay: cell-based, S. aureus. The method, then: as §1, §2
For the next assay, the system named is E. coli (ATCC 25922). Put plainly: MIC, broth microdilution. Type of assay: cell-based. The settings on record: Escherichia coli, ATCC25922; no pH/H2O2 stimulus stated. The method, then: as §1, §2
The test system of assay [3] is M. smegmatis (MC^2 155). Put plainly: MIC, broth microdilution. It counts as cell-based. To be noted: Mycolicibacterium smegmatis, MC^2155; no pH/H2O2 stimulus stated. The method, then:
as §1, §2

The next assay has as its system S. aureus (Newman). In words: MIC, broth microdilution. Type of assay: cell-based. To be noted: Staphylococcus aureus, no pH/H2O2 stimulus stated. The method, then: as §1, §2
In another assay the test system is E. coli (DH5 alpha). Put plainly: MIC, broth microdilution. Type of assay: cell-based. The settings on record: Escherichia coli; no pH/H2O2 stimulus stated. The method, then: as §1, §2
Assay [4] has as its system M. smegmatis (MC^2 155). In words: Checkerboard assay, FIC index. The settings on record: low pH and high ROS condition. It counts as cell-based. The method, then: as §3, §4
In a further assay the test system is MRSA biofilm. Put plainly: Biofilm inhibition assay (crystal violet). Type of assay: cell-based, S. aureus. To be noted: 32 μg/mL. Here is the method: Biofilm inhibition assays. Exponentially growing bacteria were inoculated into 96 well plates (1×10^4 cell/well) containing MHB broth with 2% (w/v) glucose, and incubated under stationary conditions at 37° C. for one day. After biofilm formation, the medium was discarded, and the plates were washed with PBS to remove the planktonic bacteria. Fresh MHB broth containing serially diluted free rifampicin or NP was added to the plates and incubated at 37° C. for another 24 h. The media in each well was then removed, and the plates were washed carefully with PBS one time. The biofilm in each well was fixed with 95% ethanol for 15 min and stained with 0.1% crystal violet for 15 min. After the biofilm was washed with Milli-Q water for three times, 33% v/v acetic acid (100 μL/well) was added to the plate to solubilize the crystal violet staining. OD 560 in each well was read to assess the biofilm formation.

A further assay deals with E. coli ATCC 25922. In words: Evaluation of antibiotic resistance development (serial passaging). Type of assay: cell-based. The settings on record: sub-lethal dose (0.5 MIC), after 20 passages. The method, then: Evaluation of antibiotic resistance development. […] The OD 600 value in each tube was examined to determine the MIC, and the bacteria cultured in the tube containing rifampicin at a ½ MIC was used for passage. The MIC for each passage was recorded and compared to that of the first passage to determine the drug resistance enhancement.

Assay [5] concerns Raw 264.7 murine macrophage cells. In words: Cell viability test (MTT assay). It counts as cell-based. The settings on record: Mus musculus, RAW264.7, 24 h, one day treatment. Here is the method:
Cell viability test. Cytotoxicity of different NP components was tested using MTT assays. Raw 264.7 murine macrophage cells were seeded onto a 96-well plate (1×10^4 cells/well) and cultured overnight. The cells were then treated with free antibiotic, PBAE-G polymer or NP with serial dilutions for one day and their viability was measured by a standard MTT assay. Data were collected by monitoring the difference between the absorbance at 560 nm and 650 nm using a GloMax-Multi Microplate Multimode Reader (Promega, WI, USA).

The mark [6] stands for this setting: Table 1, antibiotic alone, in µg/mL (unit assumed).

Values after ≈ are worked out from the molar mass of the structure shown. Where two headings read alike, the source gives them in different places.

With `CN[C@H](CC(C)C)C(=O)N[C@H]1C(=O)N[C@@H](CC(N)=O)C(=O)N[C@H]2C(=O)N[C@H]3C(=O)N[C@H](C(=O)N[C@H](C(=O)O)c4cc(O)cc(O)c4-c4cc3ccc4O)[C@H](O)c3ccc(c(Cl)c3)Oc3cc2cc(c3O[C@@H]2O[C@H](CO)[C@@H](O)[C@H](O)[C@H]2O[C@H]2C[C@](C)(N)[C@H](O)[C@H](C)O2)Oc2ccc(cc2Cl)[C@H]1O` [Vancomycin], the MIC was 1024 in [1] (setting [6]) and 1 µg/mL (≈ 0.69 µM) against MRSA (ATCC 33591) (Table 1, antibiotic alone). For the same molecule, the figures for the FIC index (in assay [2]; in the assay on MRSA) were 2 and 1, respectively.

Regarding Gentamicin, the MIC in assay [1] (setting [6]) came to 1; in the assay with MRSA (ATCC 33591) (Table 1, antibiotic alone), 1 µg/mL. Also, the results for the FIC index (in assay [2]; with MRSA) were 0.375 and 0.5, respectively.

On to `CCC[C@@H]1C[C@@H](C(=O)N[C@@H]([C@H]2O[C@H](SC)[C@H](O)[C@@H](O)[C@H]2O)[C@H](C)Cl)N(C)C1` [Clindamycin], for which the MIC in assay [1] (setting [6]) was more than 1024; in the assay on MRSA (ATCC 33591) (Table 1, antibiotic alone), 32 µg/mL (≈ 75.3 µM). Moreover, the FIC index in assay [2] was less than 0.25; in the assay with MRSA, 0.562.

For orientation: IC50 means the concentration that inhibits the measured activity by half. Lower therefore signals greater potency. Take `CO[C@H]1/C=C/O[C@@]2(C)Oc3c(C)c(O)c4c(O)c(c(/C=N/N5CCN(C)CC5)c(O)c4c3C2=O)NC(=O)/C(C)=C\C=C\[C@H](C)[C@H](O)[C@@H](C)[C@@H](O)[C@@H](C)[C@H](OC(C)=O)[C@@H]1C` [Rifampicin]: the MIC in the assay with E. coli (ATCC 25922) came to 16 µg/mL (≈ 19.4 µM); in assay [1] (Pseudomonas aeruginosa, ATCC27853, no pH/H2O2 stimulus stated, read-out: MIC P. aeruginosa (ATCC 27853)), 32 µg/mL (≈ 38.9 µM); in [1] (setting [6]), 32; in the assay on M. smegmatis (MC^2 155) [3], 128 µg/mL (≈ 156 µM); with S. aureus (Newman), 0.016 µg/mL (≈ 0.0194 µM); against E. coli (DH5 alpha) it was 16 µg/mL (≈ 19.4 µM). In addition, the MIC came out at 0.016 µg/mL (≈ 0.0194 µM) in the assay on MRSA (ATCC 33591) (Staphylococcus aureus, no pH/H2O2 stimulus stated, read-out: MIC MRSA (ATCC 33591)) and 0.016 µg/mL (≈ 0.0194 µM) in the assay with MRSA (ATCC 33591) (Table 1, antibiotic alone). The values for the FIC index (in assay [2]; with MRSA) were 0.25 and 1, respectively. For the same molecule, the “FIC index between rifampicin and the PBAE-G-B polymer” value was 0.188 in assay [2] (low pH and high ROS condition); 0.25 with M. smegmatis (MC^2 155) [4]. Besides, in the assay on MRSA biofilm, the biofilm remained entry is listed as “More than 80%”. For the same molecule, the “MIC increase compared to initial” value against E. coli ATCC 25922 was 40 fold. 210 µg/mL (≈ 255 µM) corresponded to half-maximal inhibition in assay [5] (IC50).

As for `[H]/N=C(/N)N[C@H]1[C@H](O)[C@@H](O)[C@H](O[C@@H]2O[C@@H](C)[C@](O)(C=O)[C@H]2O[C@@H]2O[C@@H](CO)[C@H](O)[C@@H](O)[C@@H]2NC)[C@@H](N/C(N)=N\[H])[C@@H]1O` [Streptomycin], the MIC in assay [1] (setting [6]) was 16; with MRSA (ATCC 33591) (Table 1, antibiotic alone) it was 16 µg/mL (≈ 27.5 µM). In addition, the FIC index in assay [2] is 0.25; in the assay with MRSA, 0.266.

Regarding `CC1(C)S[C@@H]2[C@H](NC(=O)[C@H](N)c3ccc(O)cc3)C(=O)N2[C@H]1C(=O)O` [Amoxicillin], the MIC is 1024 in assay [1] (setting [6]) and 128 µg/mL (≈ 350 µM) against MRSA (ATCC 33591) (Table 1, antibiotic alone). The FIC index is recorded as 2 in assay [2] and 0.75 with MRSA.

Take `O=C(O)c1cn(C2CC2)c2cc(N3CCNCC3)c(F)cc2c1=O` [Ciprofloxacin]: the MIC was determined as 0.25 in assay [1] (setting [6]) and 0.5 µg/mL (≈ 1.51 µM) in the assay on MRSA (ATCC 33591) (Table 1, antibiotic alone). Also, the FIC index in assay [2] amounted to 1; in the assay with MRSA, 2.

These data come from US12377052B2, “Dual-responsive nanoparticles for enhanced antibacterial efficacy” (priority 2020, dated 2025).
